Experimental data published in PMC7761830, “Structure-Based Virtual Screening of Ultra-Large Library Yields Potent Antagonists for a Lipid GPCR” (Biomolecules, 2020).

How the values were obtained:
wild-type CysLT1R = biological target: T1, wild-type CysLT1R (Homo sapiens, UniProt Q9Y271); assay: IP1 production assay, antagonist mode, co-stimulation with EC80 LTD4; type: cell-based; conditions: for inhibition at 30 µM: HEK293, compound 30 µM, LTD4 at EC80, HEK293, wild-type CysLT1R, read-out: inhibition of LTD4-induced IP1 production, single-concentration screen; for Emax: HEK293, read-out: CysLT1R (LTD4) % Max Inhibition ± SEM; for extent of inhibition of LTD4-mediated response at CysLT1R (in words): antagonist mode, 1.5 to 100 µM
T1 construct: expressed in transfected cells; host or cells: HEK293 (ATCC CRL-1573), transient transfection with Lipofectamine 3000
T1 sequence (Q9Y271 1-337): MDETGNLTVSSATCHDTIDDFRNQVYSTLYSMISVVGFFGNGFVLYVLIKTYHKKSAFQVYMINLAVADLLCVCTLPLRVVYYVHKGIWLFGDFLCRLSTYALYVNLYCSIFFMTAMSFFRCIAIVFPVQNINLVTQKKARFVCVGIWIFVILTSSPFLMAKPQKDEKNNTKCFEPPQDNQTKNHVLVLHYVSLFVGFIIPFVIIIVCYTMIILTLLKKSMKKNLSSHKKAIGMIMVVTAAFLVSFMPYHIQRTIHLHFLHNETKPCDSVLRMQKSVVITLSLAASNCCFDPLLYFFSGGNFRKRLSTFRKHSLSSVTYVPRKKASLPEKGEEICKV
Description: (§1) For this assay, we used the Cisbio IP-One kit as previously described. […] At 48 h post-transfection, the media was removed and the cells were washed with fresh Hank’s Balanced Salt Solution (HBSS). […] After compound stimulation, the cells were incubated for 1 h at 37 °C and stimulated with IP1-D2 and Ab-Crypt reagents in Lysis Buffer. The cells were then incubated at room temperature for an additional hour. […] Normalized data were plotted using either the three-parameter or four-parameter EC50/IC50 fits of GraphPad Prism 8 (San Diego). […] Data represent the means ± SEM of at least three independent experiments performed in quadruplicate.

wild-type CysLT2R = biological target: T2, wild-type CysLT2R (Homo sapiens, UniProt Q9NS75); assay: as above; type: cell-based; conditions: for inhibition at 30 µM: HEK293, compound 30 µM, LTD4 at EC80, HEK293, wild-type CysLT2R, read-out: inhibition of LTD4-induced IP1 production, single-concentration screen; for Emax: HEK293, read-out: CysLT2R (LTD4) % Max Inhibition ± SEM
T2 construct: expressed in transfected cells; host or cells: HEK293 (ATCC CRL-1573), transient transfection with Lipofectamine 3000
T2 sequence (Q9NS75 1-346): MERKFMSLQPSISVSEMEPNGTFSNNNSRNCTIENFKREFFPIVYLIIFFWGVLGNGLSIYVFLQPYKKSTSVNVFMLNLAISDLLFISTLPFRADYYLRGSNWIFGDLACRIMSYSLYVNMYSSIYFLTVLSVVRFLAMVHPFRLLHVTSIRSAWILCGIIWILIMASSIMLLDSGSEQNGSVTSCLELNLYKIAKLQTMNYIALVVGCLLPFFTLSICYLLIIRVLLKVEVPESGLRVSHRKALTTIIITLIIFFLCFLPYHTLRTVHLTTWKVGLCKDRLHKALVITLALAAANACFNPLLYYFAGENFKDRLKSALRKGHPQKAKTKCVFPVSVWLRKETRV
Description: as §1

remaining activity at 30 µM (wild-type CysLT1R) | remaining activity at 30 µM (wild-type CysLT2R) | SMILES | other results
80% | 70.5% | NC(=O)NC(=O)COC(=O)c1ccccc1Nc1cccc(C(F)(F)F)c1 [BRI-12349] | 
68.4% | 79.8% | Cc1cccc(-c2nnc(SCc3ccc(C(N)=O)cc3)n2CC(=O)O)c1 [BRI-12350] | 
77.6% | 82.6% | CC(Sc1ccccc1C(=O)O)C(=O)N1CC(=O)Nc2ccccc21 (stereo not shown) [BRI-12351] | 
73.4% | 87.8% | O=C(O)c1cc(S(=O)(=O)NCCc2ccc(Cl)cc2)ccc1O [BRI-12352] | 
83.4% | 96.8% | C=C1c2ccccc2C(=O)N1CCC(=O)Nc1cc(C(N)=O)cc(C(N)=O)c1 [BRI-12353] | 
72.7% | 92.8% | O=C(Cn1ccc(=O)[nH]c1=O)Nc1cccc(C=Cc2ccccn2)c1 [BRI-12354] | 
76.8% | 91.8% | c1ccc(C(CNc2ccc3nnnn3n2)c2c[nH]c3ccccc23)cc1 (stereo not shown) [BRI-12355] | 
77% | 65.7% | COc1ccc(NC(=O)CN(C)C(=O)c2ccccc2-n2cnnn2)cc1 [BRI-12357] | 
58% | 73.5% | CC(Sc1nc(Nc2ccccc2)c2ccccc2n1)C(=O)N1CCNC1=O (stereo not shown) [BRI-12358] | 
74.3% | 90.5% | Cc1ccc(-c2nnc(SCC(=O)NC(N)=O)nc2-c2ccc(C)cc2)cc1 [BRI-12360] | 
83.4% | 91.3% | O=C(O)CC(NC(=O)c1ccc2[nH]ccc2c1)c1ccccc1 (stereo not shown) [BRI-12361] | 
89.5% | 35.6% | O=C(Nc1cnc2[nH]ccc2c1)c1cnc2c(c1)c(=O)[nH]c(=O)n2Cc1ccccc1 [BRI-12401] | inhibition at 30 µM (wild-type CysLT2R): ≥ 50%; Emax (wild-type CysLT2R): 19 ± 15%
66.8% | 40.2% | Cn1nc(C2CC2)nc1CC(=O)Nc1ccc(N2CCNC2=O)cc1 [BRI-12402] | inhibition at 30 µM (wild-type CysLT2R): ≥ 50%; Emax (wild-type CysLT2R): 8 ± 4%
89.5% | 72% | O=C(NC(C(=O)O)c1ccccc1F)c1ccc(Cl)c(NC(=O)c2cccs2)c1 (stereo not shown) [BRI-12403] | 
83.8% | 67.3% | CN(CCOc1ccc(OCc2ccccc2)cc1)C(=O)c1cc(=O)[nH]c2ccc(F)cc12 [BRI-12404] | 
70% | 40.6% | O=C(COC1CCCc2ccccc21)Nc1cccc(NC(=O)NCc2ccncc2)c1 (stereo not shown) [BRI-12405] | inhibition at 30 µM (wild-type CysLT2R): ≥ 50%; Emax (wild-type CysLT2R): 23 ± 6%
79.6% | 68.4% | CC(C)c1cc(C(=O)Nc2ccc(C(=O)NCC(=O)O)cc2)nn1C [BRI-12406] | 
83% | 70.4% | CC(C)(C)CNC(=O)c1ccc(C(=O)Nc2ccccc2CC(=O)O)cc1 [BRI-12407] | 
73.3% | 62.3% | O=C(NCC(O)c1cccc(OCc2ccccc2)c1)c1cc(=O)[nH]c2ccc(F)cc12 (stereo not shown) [BRI-12409] | 
45.2% | 46.7% | NS(=O)(=O)c1cncc(-c2noc(CN(Cc3ccccc3)c3ccccc3)n2)c1 [BRI-12410] | Ki (wild-type CysLT1R): 590 ± 120 nM; inhibition at 30 µM (wild-type CysLT1R): ≥ 50%; Emax (wild-type CysLT1R): 64 ± 7%; extent of inhibition of LTD4-mediated response at CysLT1R (in words) (wild-type CysLT1R): partial antagonism; inhibition at 30 µM (wild-type CysLT2R): ≥ 50%; Emax (wild-type CysLT2R): 18 ± 9%
55.9% | 57.3% | Cc1cccc(COc2ccc(CNS(=O)(=O)N(C)CCC(=O)O)cc2)c1 [BRI-12411] | Ki (wild-type CysLT1R): 720 ± 160 nM; inhibition at 30 µM (wild-type CysLT1R): ≥ 50%; Emax (wild-type CysLT1R): 66 ± 18%; extent of inhibition of LTD4-mediated response at CysLT1R (in words) (wild-type CysLT1R): partial antagonism
91.4% | 63.4% | O=C(O)CCC(NC(=O)c1cccc(C(F)(F)F)c1)c1ccccc1 (stereo not shown) [BRI-12412] | 
80% | 49.5% | O=C(O)CNC(=O)c1ccc(S(=O)(=O)Nc2ccc3sncc3c2)cc1 [BRI-12413] | inhibition at 30 µM (wild-type CysLT2R): ≥ 50%; Emax (wild-type CysLT2R): 5 ± 6%
81.8% | 84.9% | O=C(Cc1cccc(OCc2cccnc2)c1)Nc1cccc(-n2ccc(C(=O)O)n2)c1 [BRI-12414] | 

remaining activity at 30 µM (wild-type CysLT1R) | remaining activity at 30 µM (wild-type CysLT2R) | SMILES | other results
85.1% | 56.8% | O=C(CCCc1ccc2[nH]c(=O)[nH]c2c1)Nc1ccc(C(=O)Nc2cccnc2)cc1 [BRI-12415] | 
70.8% | 80.4% | O=C1COc2cc(C(=O)N3CCC(c4cc5ccccc5[nH]4)CC3)c(Cl)cc2N1 [BRI-12416] | 
65.4% | 67.9% | NC(=O)c1ccc(CNC(=O)c2ccc(NC(=O)c3ccc(Cl)c(Cl)c3)cc2O)o1 [BRI-12418] | 
85.7% | 48.1% | O=C(Nc1ccccc1C(=O)N1CCn2ncnc2C1)c1ccc(Cl)cc1 [BRI-12419] | 
91.7% | 64.2% | CC(C)NC(=O)Nc1ccc(C(=O)Nc2ccc(OCC(=O)O)c(Cl)c2)cc1 [BRI-12420] | 
82.6% | 57.3% | O=C(O)CC(CNS(=O)(=O)c1ccc(Oc2ccc(Cl)cc2)cc1)C(=O)O (stereo not shown) [BRI-12421] | 
79.8% | 76.5% | Cc1ccnc(-c2ccc(NC(=O)COC(C)C)cc2)n1 [BRI-12422] | 
89.7% | 68.2% | CC(O)CN(C(=O)Nc1ccc2c(c1)CCCC2=O)C1CC1 (stereo not shown) [BRI-12423] | 
84.2% | 79.8% | Cc1onc(N)c1S(=O)(=O)Nc1ccc(N2CCCC2)cc1C(=O)O [BRI-12425] | 
72.6% | 41.8% | NS(=O)(=O)c1cc(C(=O)NCCc2ccc(OCC(=O)O)cc2)cs1 [BRI-12426] | inhibition at 30 µM (wild-type CysLT2R): ≥ 50%; Emax (wild-type CysLT2R): 5 ± 9%
78.7% | 42.4% | O=C(O)COc1cccc(CNC(=O)c2cnc(-c3ncccn3)s2)c1 [BRI-12427] | inhibition at 30 µM (wild-type CysLT2R): ≥ 50%; Emax (wild-type CysLT2R): 15 ± 13%
90.3% | 59.5% | Cc1ccc(C(=O)Nc2ccc(C(=O)NCC(=O)O)cc2)c(O)c1 [BRI-12428] | 
72.3% | 68% | O=C(O)CNS(=O)(=O)c1cccc(NC(=O)c2ccc(C3CCC3)cc2)c1 [BRI-12429] | 
79.5% | 92.5% | CN(C(=O)c1ccc(C(=O)Nc2ccsc2C(N)=O)cc1)c1ccccc1 [BRI-12430] | 
90.9% | 63.2% | CN(CCCc1cc(-c2ccc(F)cc2)n[nH]1)S(=O)(=O)c1[nH]ncc1C(=O)O [BRI-12431] | 
81% | 76.9% | COc1ccc(N(CCC(=O)O)S(=O)(=O)c2csc(-c3ccc(F)cc3)n2)cc1 [BRI-12432] | 
76.2% | 62.7% | O=C(O)CNC(=O)c1ccc(NS(=O)(=O)c2csc(-c3ccc(Cl)cc3)n2)cc1 [BRI-12433] | 
57.6% | 62% | CCN(CC)C(=O)c1ccc(C(=O)OCc2cc(C(C)=O)no2)cc1 [BRI-12434] | 
54.5% | 77.1% | Cc1ccccc1Nc1nc2sc(C(=O)NCCc3nnc4n3CCNC4=O)cc2s1 [BRI-12435] | inhibition at 30 µM (wild-type CysLT1R): ≥ 50%; Emax (wild-type CysLT1R): 46 ± 20%
93.9% | 67.5% | O=C(O)C1CN(C(=O)Nc2cc(Br)ccn2)CCO1 (stereo not shown) [BRI-12436] | 
91.9% | 80.5% | Cc1ccc(C(NS(=O)(=O)c2ccc(C(=O)NCC(=O)O)cc2)c2ccccn2)cc1 (stereo not shown) [BRI-12437] | 
62.6% | 88.7% | Cc1cccn2cc(-c3cccc(NC(=O)Cn4c(=O)[nH]c(=O)c5ccccc54)c3)nc12 [BRI-12438] | 
88.3% | 72.4% | O=C(O)C(Cc1c[nH]c2ncccc12)NS(=O)(=O)c1csc(-c2ccc(F)cc2)n1 (stereo not shown) [BRI-12439] | 
